The values below are quoted from earlier work in patent publication US6689400B2, “Process of obtaining compositions of stable lutein and lutein derivatives” (Sabinsa Corporation, priority 2001, dated 2004).

The conditions of series [1]: exposure to white fluorescent light, carefully controlled conditions.
For series [2] the following is noted: room temperature or higher.

For `CC1=C[C@H](O)CC(C)(C)[C@H]1/C=C/C(C)=C/C=C/C(C)=C/C=C/C=C(C)/C=C/C=C(C)/C=C/C1=C(C)C[C@@H](O)CC1(C)C` [lutein], the degradation of lutein in series [1] is recorded as 0.8-10.7 % per day. Further, in series [2], the stability entry is reported as “not stable”.
